In patent publication US20220347256A1, “COMPOSITION FOR PROMOTING HAIR GROWTH, AND ALLEVIATING AND TREATING HAIR LOSS INCLUDING SUBSTANCE P” (Biosolution Co., Ltd., priority 2019, published 2022):
Where no end group is shown, it is not given here.

Tests used:
C3H/HeN mice [1] = assay: Maintenance of skin in growth phase in C3H mice with dexamethasone-induced regression phase (black skin area); format: in vivo
Method: More specifically, ketamine (Yuhan Co, Ltd, Korea) and rompun (Bayer Korea, Korea) were mixed to a final concentration of 24.2 mg/mL and 1.8 mg/mL, respectively, and then six-week-old female C3H/HeN mice (Orient Bio, Korea) were anesthetized with 80 μL of the anesthetic solution. After anesthesia, the hair on the back was removed using a clipper, and the remaining hair was completely removed using a hair removal cream. Then, twelve mice with clean skin without wounds or remaining hair at the hair removal site were selected. Three mice were placed in each group so that mice with similar hair cycle were placed in each group, and thereafter the experiment was carried out. The phosphate buffered saline or the composition including the substance P at 50% concentration was intradermally injected in an amount of 50 μL each for a total of 200 μL at four sites on the back of the mice, at intervals of 3 to 4 days for 7 days from 6 days after the hair removal using an insulin syringe. […] One-way ANOVA was carried out to examine the difference between the entire groups, and the difference between individual means was analyzed using Tukey's test. […] This statistic was analyzed based on Prism software version 5. […]

C3H/HeN mice [2] = assay: Number of hair follicles in skin of C3H mice with dexamethasone-induced regression phase; format: in vivo; conditions: in combination with dexamethasone
Method: More specifically, after the procedure of Example 7, the skin tissue of the mice was collected in the direction vertical to the hair follicles and fixed in a fixing solution (4% formaldehyde, Sigma, USA) for 24 hours. The hematoxylin and eosin staining was carried out in the same manner as in Example 8.
Additionally, the number of hair follicles in 1 mm of skin was measured for each group by the Image J program. The number of hair follicles were measured in 10 tissues per group by dividing the skin into D, SC, and W layers, and the results are shown in the graph of FIG. 15.

C3H/HeN mice [3] = assay: H&E histology, thickness and shape of skin in C3H mice with dexamethasone-induced regression phase; format: in vivo; conditions: in combination with dexamethasone
Method: More specifically, after the procedure of Example 7, the skin tissue of the mice was collected in the direction of the hair follicles and fixed in a fixing solution (4% formaldehyde, Sigma, USA) for 24 hours. […] Thereafter, an infiltration process was carried out to fill the penetrant into the tissue, followed by an embedding process to make a paraffin block. For hematoxylin (Sigma, USA) and eosin (Sigma, USA) staining, the paraffin block was cut into 8 μm and attached to slides (microscope slides, Marienfeld, Germany) coated with 2% 3-aminosilane, followed by drying in a 37° C. slide warmer for 12 hours. Thereafter, the slides were immersed in xylene four times for 7 minutes each through a deparaffinization process, and subjected to hydration for staining, and then washed with water. […] One-way ANOVA was carried out to examine the difference between the entire groups, and the difference between individual means was analyzed using Tukey's test. […] This statistic was analyzed based on Prism software version 5.
Additionally, the thickness of the dermis and the subcutaneous layers was confirmed by the Image J program. Skin thickness was measured by dividing the skin into the dermal layer (D), subcutaneous layer (SC), and whole layer (W), and 30 different areas were measured for each group and the results are shown in the graph of FIG. 13.

germinal matrix cells = assay: MTT assay of germinal matrix cell proliferation; format: cell-based; conditions: 24 hours, concentration groups 30% and 50%
Method: The effect of substance P on germinal matrix cell proliferation was analyzed by MTT assay.
More specifically, 1,000 μL of 0.5×10^5 CFU/mL germinal matrix cell suspension was added to a 12-well culture plate and incubated for 48 hours. The medium (alpha-Minimum Essential Medium, alpha-MEM+10% FBS+10 ng/ml bFGF) was removed, and then 900 μL of a fresh medium (alpha-Minimum Essential Medium, alpha-MEM+5% FBS+5 ng/ml bFGF) was dispensed into each well, and then 100 μL of the composition including substance P diluted with phosphate buffered saline (PBS) was inoculated at concentrations of 30% and 50%. Additionally, substance P (30% and 50%) at the same concentration as the composition including substance P was respectively mixed with phosphate buffered saline and treated. Meanwhile, 100 μL of phosphate buffered saline was used as a negative control group. After inoculation, cells were incubated at 37° C. for 24 hours, and then the medium was removed. Then, the cells were washed with the phosphate buffered saline three times. Subsequently, 900 μL of the medium was mixed with 100 μL of the MTT solution (0.5 mg/mL), and the mixed solution was treated to each well and allowed to react at 37° C. for 3 hours. Finally, the cells were washed with the phosphate buffered saline and stirred in 150 μL of isopropyl alcohol solution for 3 hours, and absorbance at 570 nm was measured.

dermal papilla cells = assay: MTT assay of dermal papilla cell proliferation; format: cell-based; conditions: 24 hours, concentration groups 30% and 50%
Method: The effect of substance P on dermal papilla cell proliferation was analyzed by MTT assay.
More specifically, 1,000 μL of 0.5×10^5 CFU/mL dermal papilla cell suspension was added to a 12-well culture plate and incubated for 48 hours. The medium (alpha-Minimum Essential Medium, alpha-MEM+10% FBS) was removed, and then 900 μL of a fresh medium (alpha-Minimum Essential Medium, alpha-MEM +5% FBS) was dispensed into each well, and then 100 μL of the composition including substance P diluted with phosphate buffered saline (PBS) was inoculated at concentrations of 30% and 50% (the substance P was contained at a concentration of 6 mg/mL and 10 mg/mL in the composition with concentrations of 30% and 50%, respectively). Additionally, substance P (30% and 50%) at the same concentrations as the composition including substance P was respectively mixed with phosphate buffered saline and treated.
Meanwhile, 100 μL of phosphate buffered saline was used as a negative control group. After inoculation, cells were incubated at 37° C. for 24 hours, and then the medium was removed. Then, the cells were washed with phosphate buffered saline three times. […] Finally, the cells were washed with phosphate buffered saline and stirred in 150 μL of isopropyl alcohol solution for 3 hours, and absorbance at 570 nm was measured.

Nc1cc(N2CCCCC2)nc(N)[n+]1[O-] [minoxidil 2%, minoxidil] was tested, and the “inhibition of the induction of the regression phase by dexamethasone” value (C3H/HeN mice [1]; from black skin area) was 46%, the “black-skinned back relative to the total skin” value (C3H/HeN mice [1]; in combination with dexamethasone, 17 days after hair removal, Image J) was 47% and the “number of hair follicles maintained in the dermis compared to phosphate buffered saline” value (C3H/HeN mice [2]) was “about 1.4 times”. For the same molecule, the “number of hair follicles maintained in the subcutaneous compared to phosphate buffered saline” value (C3H/HeN mice [2]) was “about 56 times”, the “number of hair follicles maintained in the whole skin compared to phosphate buffered saline” value (C3H/HeN mice [2]) was “about 3.7 times” and the “inhibition of the regression phase of the subcutaneous layer (SC) compared to phosphate buffered saline” value (C3H/HeN mice [3]) was 233%.

In the case of “Arg-Pro-Lys-Pro-Gln-Gln-Phe-Phe-Gly-Leu-Met-NH2 (RPKPQQFFGLM-NH2) [substance P, in phosphate buffered saline as comparison group]”, the “cell proliferation of germinal matrix cells” value (germinal matrix cells) is reported as ≤ 105% and the “cell proliferation of dermal papilla cells” value (dermal papilla cells) is reported as 107%.
